Tests used:
Tainung 67 seedlings = experiment: root growth of rice seedlings on half-strength MS medium containing ABA and/or NPA; assay type: in vivo, Oryza sativa L. cv Tainung 67; set-up: lateral root morphology: dose or concentration left out as unconfirmed
Source text: Three-day-old seedlings of Tainung 67 (T) transgenic lines were transferred to half-strength MS medium without sugar but containing ABA or sorbitol, and root morphology was examined. (A) Morphology of various branch roots.
Three-day-old seedlings of Tainung 67 (T) transgenic lines that containing seminal roots only were transferred to half-strength MS (½) medium without sugar but containing ABA and/or NPA for 11 days, and root morphology was examined. […] The dots indicate starting points of root growth after transferring to MS medium containing ABA and/or NPA.
Rice cultivars Oryza sativa L. cv Tainung 67 and Oryza sativa L. cv Kitaake were used for all experiments. Plasmid was introduced into Agrobacerium tumefaciens strain EHA101 and rice transformation was performed as described (Chen P-W, et al. (2002) J Biol Chem 277:13641-13649). Homozygous transgenic lines were used in all experiments. For observation of root growth, transgenic rice seeds were germinated on the surface of half-strength MS medium without sugar but with or without ABA. For hydroponic culture, Yoshida solution was used. Seedlings were normally grown in 28′C incubator with 12 hr daily light.
Rice branch roots could be classified into four types: seminal root, also called radical, the first root grows during germination; crown roots, roots emerge from the node of coleoptile; adventitious roots, roots differentiate from the nodes of main stem and tillers, lateral roots, roots branch from above three types of roots and can bear additional large or small lateral roots until the fifth order of branching. The number of each type of root was measured by simple counting. Root length was measured, number of roots was counted, and lateral root density was determined by dividing lateral root number with root length. Error bars represent SD (n=12). Significance levels: *P<0.05, **P<0.01, ***P<0.001.
In medium without any treatment, newly grown crown and lateral roots were more abundant in Tainung 67 transgenic lines than in WT (FIG. 12(A)). […] In the presence of NPA, growth of all types of roots was inhibited (FIG. 12(C)).

rice half seeds = experiment: rice half-seed transient expression assay, GUS activity; assay type: cell-based; details: rice half seeds transfected by particle bombardment, with vs without 10 μM ABA for 16 h
Description: (§1) (A) Three copies of ABRC321 confer high ABA inducibility in a rice half-seed transient expression assay. Rice half seeds were transfected with plasmids shown in FIG. 1 by particle bombardment, and incubated with (+) or without (−) 10 μM ABA for 16 h, and GUS activity was analyzed. (B) Three copies of ABRC321 confer high ABA inducibility in leaves and roots in transgenic rice. Constructs shown in FIG. 1 were introduced into the rice genome. Leaves and roots of 10-day-old T2 seedlings of four transgenic lines were collected and incubated in water with (+) or without (−) 10 μM ABA for 16 h, and GUS activity was analyzed. Numbers above bars indicate fold induction of GUS activity by ABA. Error bars represent SD (n=3).
Two 56-bp complementary oligonucleotides, containing the CE3 and A2 elements from the HVA1 promoter and the CE1 element from the HVA22 promoter (Shen Q, Zhang P, & Ho T H (1996) Plant Cell 8(7):1107-1119) and restriction sites KpnI, XhoI and XbaI were synthesized, annealed, and designated as ABRC321 (FIG. 1A). ABRC321 was self-ligated in two or three copies in correct orientations. For expression of GUS under the control of ABRC321, 1-3 copies ABRC321 was inserted into the XbaI site in MP64, so that the ABRC321 was fused upstream of the barley Amy64 minimal promoter, generating constructs 1xABRC321-GUS, 2x-ABRC321-GUS and 3xABRC321-GUS (FIG. 1(B)). For expression of HVA1 under the control of 3xABRC321, GUS cDNA in construct 3xABRC321-GUS was replaced with HVA1 cDNA, generating construct 3xABRC321-HVA1 (FIG. 1(C)) (SEQ ID NO: 6).
In this study, we used a […] promoter, ABRC321, to express recombinant HVA1 (rHVA1) in plants. […] ABRC321 was generated by fusion of coupling element CE3 and ABRE2 (A2) from the HVA1 ABRC3 and coupling element CE1 from the HVA22 ABRC1 (Shen Q, Zhang P, & Ho T H (1996) Plant Cell 8(7):1107-1119). The reporter gene GUS was fused downstream of 1-3 tandem repeats of ABRC321 and the Amy64 minimal promoter.

PIN genes = experiment: quantitative real-time RT-PCR of auxin transporter genes in roots; assay type: in vivo, rice; details: Yoshida solution with or without 0.2 μM ABA for 14 days, root RNA
Description: Four-day-old seedlings of Tainung 67 (T) transgenic lines were germinated on MS medium for four days and transfer to full strength Yoshida solution with or without 0.2 μM ABA for 14 days. Total RNA was extracted from roots and subjected to quantitative real-time RT-PCR.
To determine whether the promotion of root growth by HVA1 in transgenic rice involves the auxin (IAA)-dependent pathway, the expression of various genes involved in auxin transport and signaling were determined. […] The rice PIN family is encoded by 12 genes, with expression of each being spatially and temporally regulated (Wang J R, et al. (2009) Mol Plant 2(4):823-831).

[1] = tested on: leaves and roots in transgenic rice; experiment: GUS activity in leaves and roots of stably transformed transgenic rice; assay type: in vivo; details: 10-day-old T2 seedlings, 10 μM ABA for 16 h, compared among all constructs
Description: as §1
All ABRC321:GUS constructs were also used for rice stable transformation.

[2] = 0.2 μM ABA plus 1 μM NPA, 11 days

`O=C(O)c1ccccc1C(=O)Nc1cccc2ccccc12` [NPA, N-(1-naphthyl) phtalamic acid] was tested, and the “growth of crown roots and lateral roots” value (Tainung 67 seedlings; [2]) was “also inhibited”, the “growth of seminal roots” value (Tainung 67 seedlings; [2]) was “continued to grow” and the “growth of all types of roots” value (Tainung 67 seedlings; 1 μM NPA only, 11 days, WT and transgenic lines) was “inhibited”.

“1xABRC321: synthetic ABA-inducible promoter, one copy of ABRC321 (CE3, A2, CE1 elements) fused upstream of Amy64 minimal promoter and GUS (DNA GGTACCGCAACGCGTGTCCTCCCTACGTGGCGGCTCGAGATTGCCACCGGTCTAGA; synthetic promoter element in GUS reporter construct, further chemistry not given here)” was tested, and the “induction of GUS activity by ABA” value (rice half seeds) was 19 fold.

For `CC1=CC(=O)CC(C)(C)[C@@]1(O)/C=C/C(C)=C\C(=O)O` [ABA, abscisic acid], the “root length and lateral root density” value (Tainung 67 seedlings; ABA concentration of 0.1 μM, 14 days) was “significantly increased”, the root density (Tainung 67 seedlings; ABA concentrations higher than 0.5 M, 14 days) was “decreased” and the lateral root morphology (Tainung 67 seedlings; ABA concentrations, 14 days) was “shorter and thicker”. The “expression of several PIN genes” value (PIN genes) was “up-regulated”.

B1: 3xABRC321: synthetic ABA-inducible promoter, three tandem copies of ABRC321 driving GUS (nucleic acid)
DNA: GGTACCGCAACGCGTGTCCTCCCTACGTGGCGGCTCGAGATTGCCACCGGGGTACCGCAACGCGTGTCCTCCCTACGTGGCGGCTCGAGATTGCCACCGGGGTACCGCAACGCGTGTCCTCCCTACGTGGCGGCTCGAGATTGCCACCGGTCTAGA
modifications: Synthetic prompter 3XABRC321
notes: synthetic ABA-inducible promoter, three tandem copies of ABRC321 driving GUS
With B1 the “induction of GUS activity by ABA” value (rice half seeds) was 33 fold and the “ABA induction of GUS activity in leaves and roots” value [1] was “most highly induced by ABA among all constructs”.

B2: 2xABRC321: synthetic ABA-inducible promoter, two tandem copies of ABRC321 driving GUS (nucleic acid)
DNA: GGTACCGCAACGCGTGTCCTCCCTACGTGGCGGCTCGAGATTGCCACCGGGGTACCGCAACGCGTGTCCTCCCTACGTGGCGGCTCGAGATTGCCACCGGTCTAGA
modifications: synthetic promoter element in GUS reporter construct, further chemistry not given here
For B2, the “induction of GUS activity by ABA” value (rice half seeds) was 20 fold.
